pIC50: −log10 of the molar value.
Columns and labels:
human DGKα = biological target: T1, human DGKα (Homo sapiens, UniProt P23743); experiment: In vitro DGK inhibition assay, DGKα liposome (LIPGLO) assay; format: biochemical; settings: read-out: Enzyme Inhibition DGKalpha IC50
T1 construct: TVMV protease cleavage site (C); Hexa-His (C); made in house; host or cells: Sf9 insect cells (baculovirus)
Method: (§1) The DGKα and DGKζ reactions were performed using either extruded liposome (DGKα and DGKζ LIPGLO assays) or detergent/lipid micelle substrate (DGKα and DGKζ assays). The reactions were carried out in 50 mM MOPS pH 7.5, 100 mM NaCl, 10 mM MgCl2, 1 μM CaCl2, and 1 mM DTT (assay buffer). The reactions using a detergent/lipid micelle substrate also contained 50 mM octyl B-D-glucopyranoside. The lipid substrate concentrations were 11 mM PS and 1 mM DAG for the detergent/lipid micelle reactions. The lipid substrate concentrations were 2 mM PS, 0.25 mM DAG, and 2.75 mM PC for the extruded liposome reactions (5 mM total lipid). The reactions were carried out in 150 μM ATP The enzyme concentrations for the DGKα and DGKζ were 5 nM
(§2) The compound inhibition studies were carried out as follows: 25 nL (ADPGLO assay) or 50 nL (LIPGLO assay) droplets of each test compound (top concentration 10 mM with 11 point, 3-fold dilution series for each compound) solubilized in DMSO were transferred to wells of a white 1536 well plate (Corning 3725). A 5 mL enzyme/lipid substrate solution at 2× final reaction concentration was prepared by combining 2.5 mL 4× enzyme solution (20 nM DGKα, or DGKζ (prepared as described below) in assay buffer) and 2.5 mL of either 4× liposome or 4× detergent/lipid micelle solution (compositions described below) and incubated at room temperature for 10 minutes. Next, 1 μL 2× enzyme/lipid substrate solution was added to wells containing the test compound and reactions were initiated with the addition of 1 μL 300 uM ATP. The reactions were allowed to proceed for 2 hr (ADPGLO assay) or 1 hr (LIPGLO assay), after which 2 μL Glo Reagent (Promega V9101) was added and incubated for 40 minutes. Next, 4 μL Kinase Detection Reagent was added and incubated for 30 minutes. Luminescence was recorded using an EnVision microplate reader. […] The compounds were evaluated at 11 concentrations to determine IC50.
(§3) The lipid composition was 5 mol % DAG (Avanti 8008110), 40 mol % PS (Avanti 840035P), and 55 mol % PC (Avanti 850457) at a total lipid concentration of 7-8 mg/mL for the liposome solution. The PC, DAG, and PS were dissolved in chloroform, combined, and dried in vacuo to a thin film. The lipids were hydrated to 20 mM in 50 mM MOPS pH 7.5, 100 mM NaCl, 5 mM MgCl2, and were freeze-thawed five times. The lipid suspension was extruded through a 100 nm polycarbonate filter 10-12 times. […] The liposome preparation was stored at 4° C. for as long as four weeks.
as §3, with “15.2” for “7-8”, “the 4×” for “the”, “eleven” for “10-12”
(§4) Human DGK-alpha-TVMV-His-pFBgate and human DGK-zeta-transcript variant-2-TVMV-His-pFBgate baculovirus samples were generated using the Bac-to-Bac baculovirus expression system (Invitrogen) according to the manufacturer's protocol. […] Baculovirus amplification was achieved using infected Sf9 cells at 1:1500 virus/cell ratios, and grown for 65 hours at 27° C. post-transfection.
(§5) The expression scale up for each protein was carried out in the Cellbag 50L WAVE-Bioreactor System 20/50 from GE Healthcare Bioscience. 12 L of 2×10^6 cells/mL Sf9 cells (Expression System, Davis, CA) grown in ESF921 insect medium (Expression System) were infected with virus stock at 1:200 virus/cell ratios, and grown for 66-68 hours at 27° C. post-infection.

human DGKζ = biological target: T2, human DGKζ (Homo sapiens, UniProt Q13574); experiment: In vitro DGK inhibition assay, DGKζ liposome (LIPGLO) assay; format: biochemical; settings: read-out: Enzyme Inhibition DGKzeta IC50
T2 construct: TVMV protease cleavage site (C); Hexa-His (C); made in house; host or cells: Sf9 insect cells (baculovirus)
T2 sequence (Q13574 with tags, fused parts or gaps isoform Q13574-4): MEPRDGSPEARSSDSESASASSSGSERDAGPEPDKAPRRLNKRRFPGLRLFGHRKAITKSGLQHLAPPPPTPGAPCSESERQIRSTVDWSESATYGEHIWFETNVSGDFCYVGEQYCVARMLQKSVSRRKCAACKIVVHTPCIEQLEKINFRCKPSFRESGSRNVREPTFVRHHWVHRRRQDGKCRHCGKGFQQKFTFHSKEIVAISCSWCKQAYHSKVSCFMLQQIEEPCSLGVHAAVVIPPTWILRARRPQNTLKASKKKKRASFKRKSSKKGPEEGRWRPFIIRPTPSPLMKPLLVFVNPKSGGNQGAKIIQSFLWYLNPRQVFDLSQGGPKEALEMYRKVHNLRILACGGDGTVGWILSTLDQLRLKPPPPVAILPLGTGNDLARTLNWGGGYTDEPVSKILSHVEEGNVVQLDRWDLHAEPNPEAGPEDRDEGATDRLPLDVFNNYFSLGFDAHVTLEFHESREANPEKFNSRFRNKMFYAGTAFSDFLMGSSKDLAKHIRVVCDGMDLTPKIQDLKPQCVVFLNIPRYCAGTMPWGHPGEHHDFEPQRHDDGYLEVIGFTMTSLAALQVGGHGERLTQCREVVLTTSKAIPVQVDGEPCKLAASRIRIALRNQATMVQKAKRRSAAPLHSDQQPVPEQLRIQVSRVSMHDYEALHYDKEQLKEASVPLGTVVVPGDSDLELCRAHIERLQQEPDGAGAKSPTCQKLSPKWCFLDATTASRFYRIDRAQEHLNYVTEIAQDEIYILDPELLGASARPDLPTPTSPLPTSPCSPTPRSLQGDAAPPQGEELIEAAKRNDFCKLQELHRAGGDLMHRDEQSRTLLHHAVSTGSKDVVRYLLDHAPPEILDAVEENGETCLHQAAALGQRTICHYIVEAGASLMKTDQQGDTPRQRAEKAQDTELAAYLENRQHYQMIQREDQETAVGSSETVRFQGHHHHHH
Method: as §1, §2, §3
as §3, with “15.2” for “7-8”, “the 4×” for “the”, “eleven” for “10-12”
as §4, §5

T1 sequence (P23743 with tags, fused parts or gaps): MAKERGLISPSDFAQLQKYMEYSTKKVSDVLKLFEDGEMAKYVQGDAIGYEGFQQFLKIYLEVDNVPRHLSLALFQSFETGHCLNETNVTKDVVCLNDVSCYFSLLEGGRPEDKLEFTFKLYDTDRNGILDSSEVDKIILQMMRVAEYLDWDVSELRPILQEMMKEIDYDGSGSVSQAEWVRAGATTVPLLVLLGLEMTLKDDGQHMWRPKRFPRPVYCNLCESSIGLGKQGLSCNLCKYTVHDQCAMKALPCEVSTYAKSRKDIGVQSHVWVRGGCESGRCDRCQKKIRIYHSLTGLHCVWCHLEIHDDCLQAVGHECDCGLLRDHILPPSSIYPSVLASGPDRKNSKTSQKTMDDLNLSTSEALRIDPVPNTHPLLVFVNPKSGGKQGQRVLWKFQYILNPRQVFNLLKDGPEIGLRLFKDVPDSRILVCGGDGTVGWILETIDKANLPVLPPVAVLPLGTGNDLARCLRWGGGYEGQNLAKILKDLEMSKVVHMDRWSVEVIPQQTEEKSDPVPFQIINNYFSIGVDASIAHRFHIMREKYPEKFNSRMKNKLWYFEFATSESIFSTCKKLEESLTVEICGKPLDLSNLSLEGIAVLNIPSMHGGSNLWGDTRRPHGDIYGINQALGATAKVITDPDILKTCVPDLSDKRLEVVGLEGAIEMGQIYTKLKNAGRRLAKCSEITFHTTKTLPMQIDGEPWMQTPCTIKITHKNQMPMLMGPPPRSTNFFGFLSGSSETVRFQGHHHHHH

| pIC50 (human DGKα) | pIC50 (human DGKζ) | SMILES |
| --- | --- | --- |
| 6.85 | 4.82 | Cn1c(=O)cc(N(CC2CC2)c2cccc(-c3ccc(Cl)cc3)c2)c2nc(C#N)ccc21 [Example 71, 8-((4′-chloro-[1,1′-biphenyl]-3-yl)(cyclopropylmethyl)amino)-5-methyl-6-oxo-5,6-dihydro-1,5-naphthyridine-2-carbonitrile] |
| 5.28 | 5.70 | COc1ccc(-c2ccc(N(CC3CC3)c3cc(=O)n(C)c4ccc(C#N)nc34)cc2)cc1 [Example 73, 8-((cyclopropylmethyl)(4′-methoxy-[1,1′-biphenyl]-4-yl)amino)-5-methyl-6-oxo-5,6-dihydro-1,5-naphthyridine-2-carbonitrile] |
| 5.21 | 5.82 | Cc1cccc(-c2ccc(N(CC3CC3)c3cc(=O)n(C)c4ccc(C#N)nc34)cc2)c1 [Example 74, 8-((cyclopropylmethyl)(3′-methyl-[1,1′-biphenyl]-4-yl)amino)-5-methyl-6-oxo-5,6-dihydro-1,5-naphthyridine-2-carbonitrile] |
| 5.48 | 6.06 | Cc1ccccc1-c1ccc(N(CC2CC2)c2cc(=O)n(C)c3ccc(C#N)nc23)cc1 [Example 75, 8-((cyclopropylmethyl)(2′-methyl-[1,1′-biphenyl]-4-yl)amino)-5-methyl-6-oxo-5,6-dihydro-1,5-naphthyridine-2-carbonitrile] |
| 5.21 | 5.68 | Cn1c(=O)cc(N(CC2CC2)c2ccc(-c3cccc(Cl)c3)cc2)c2nc(C#N)ccc21 [Example 76, 8-((3′-chloro-[1,1′-biphenyl]-4-yl)(cyclopropylmethyl)amino)-5-methyl-6-oxo-5,6-dihydro-1,5-naphthyridine-2-carbonitrile] |
| 5.02 | 5.40 | COc1cccc(-c2ccc(N(CC3CC3)c3cc(=O)n(C)c4ccc(C#N)nc34)cc2)c1 [Example 77, 8-((cyclopropylmethyl)(3′-methoxy-[1,1′-biphenyl]-4-yl)amino)-5-methyl-6-oxo-5,6-dihydro-1,5-naphthyridine-2-carbonitrile] |
| 5.20 | 5.89 | Cn1c(=O)cc(N(CC2CC2)c2ccc(-c3ccccc3O)cc2)c2nc(C#N)ccc21 [Example 80, 8-((cyclopropylmethyl)(2′-hydroxy-[1,1′-biphenyl]-4-yl)amino)-5-methyl-6-oxo-5,6-dihydro-1,5-naphthyridine-2-carbonitrile] |
| 5.42 | 5.43 | Cn1c(=O)cc(N(CC2CC2)c2ccc(-c3cccc(O)c3)cc2)c2nc(C#N)ccc21 [Example 81, 8-((cyclopropylmethyl)(3′-hydroxy-[1,1′-biphenyl]-4-yl)amino)-5-methyl-6-oxo-5,6-dihydro-1,5-naphthyridine-2-carbonitrile] |
| 5.42 | 5.70 | CN(C)C(=O)c1ccc(-c2ccc(N(CC3CC3)c3cc(=O)n(C)c4ccc(C#N)nc34)cc2)cc1 [Example 82, 4′-((6-cyano-1-methyl-2-oxo-1,2-dihydro-1,5-naphthyridin-4-yl) (cyclopropylmethyl)amino)-N,N-dimethyl-[1,1′-biphenyl]-4-carboxamide] |
| 4.74 | 5.12 | Cn1c(=O)cc(N(CC2CC2)c2ccc(-c3cccc(C(N)=O)c3)cc2)c2nc(C#N)ccc21 [Example 84, 4′-((6-cyano-1-methyl-2-oxo-1,2-dihydro-1,5-naphthyridin-4-yl)(cyclopropylmethyl)amino)-[1,1′-biphenyl]-3-carboxamide] |
| 5.25 | 5.40 | Cn1c(=O)cc(N(CC2CC2)c2ccc(-c3cccc(CNS(C)(=O)=O)c3)cc2)c2nc(C#N)ccc21 [Example 85, N-((4′-((6-cyano-1-methyl-2-oxo-1,2-dihydro-1,5-naphthyridin-4-yl) (cyclopropylmethyl)amino)-[1,1′-biphenyl]-3-yl)methyl)methanesulfonamide] |
| 5.96 | 5.70 | CN(C)c1ccc(-c2ccc(N(CC3CC3)c3cc(=O)n(C)c4ccc(C#N)nc34)cc2)cc1 [Example 87, 8-((cyclopropylmethyl)(4′-(dimethylamino)-[1,1′-biphenyl]-4-yl)amino)-5-methyl-6-oxo-5,6-dihydro-1,5-naphthyridine-2-carbonitrile] |
| 5.49 | 6.06 | CN(C)C(=O)c1cccc(-c2ccc(N(CC3CC3)c3cc(=O)n(C)c4ccc(C#N)nc34)cc2)c1 [Example 88, 4′-((6-cyano-1-methyl-2-oxo-1,2-dihydro-1,5-naphthyridin-4-yl)(cyclopropylmethyl)amino)-N,N-dimethyl-[1,1′-biphenyl]-3-carboxamide] |
| 5.60 | 6.04 | CN(C)c1cccc(-c2ccc(N(CC3CC3)c3cc(=O)n(C)c4ccc(C#N)nc34)cc2)c1 [Example 89, 8-((cyclopropylmethyl)(3′-(dimethylamino)-[1,1′-biphenyl]-4-yl)amino)-5-methyl-6-oxo-5,6-dihydro-1,5-naphthyridine-2-carbonitrile] |
| 4.92 | 5.30 | COc1cc(-c2ccc(N(CC3CC3)c3cc(=O)n(C)c4ccc(C#N)nc34)cc2)ccn1 [Example 90, 8-((cyclopropylmethyl)(4-(2-methoxypyridin-4-yl)phenyl)amino)-5-methyl-6-oxo-5,6-dihydro-1,5-naphthyridine-2-carbonitrile] |
| 7.64 | 5.49 | COc1ccc(-c2cccc(N(CC3CC3)c3cc(=O)n(C)c4ccc(C#N)nc34)c2)cc1 [Example 91, 8-((cyclopropylmethyl)(4′-methoxy-[1,1′-biphenyl]-3-yl)amino)-5-methyl-6-oxo-5,6-dihydro-1,5-naphthyridine-2-carbonitrile] |
| 6.11 | 5.14 | Cc1cccc(-c2cccc(N(CC3CC3)c3cc(=O)n(C)c4ccc(C#N)nc34)c2)c1 [Example 92, 8-((cyclopropylmethyl)(3′-methyl-[1,1′-biphenyl]-3-yl)amino)-5-methyl-6-oxo-5,6-dihydro-1,5-naphthyridine-2-carbonitrile] |
| 5.38 | 5.04 | Cc1ccccc1-c1cccc(N(CC2CC2)c2cc(=O)n(C)c3ccc(C#N)nc23)c1 [Example 93, 8-((cyclopropylmethyl)(2′-methyl-[1,1′-biphenyl]-3-yl)amino)-5-methyl-6-oxo-5,6-dihydro-1,5-naphthyridine-2-carbonitrile] |
| 5.60 | 5.04 | Cn1c(=O)cc(N(CC2CC2)c2cccc(-c3cccc(Cl)c3)c2)c2nc(C#N)ccc21 [Example 94, 8-((3′-chloro-[1,1′-biphenyl]-3-yl) (cyclopropylmethyl)amino)-5-methyl-6-oxo-5,6-dihydro-1,5-naphthyridine-2-carbonitrile] |
| 5.70 | 5.21 | COc1cccc(-c2cccc(N(CC3CC3)c3cc(=O)n(C)c4ccc(C#N)nc34)c2)c1 [Example 95, 8-((cyclopropylmethyl)(3′-methoxy-[1,1′-biphenyl]-3-yl)amino)-5-methyl-6-oxo-5,6-dihydro-1,5-naphthyridine-2-carbonitrile] |
| 5.54 | 5.27 | COc1ccccc1-c1cccc(N(CC2CC2)c2cc(=O)n(C)c3ccc(C#N)nc23)c1 [Example 96, 8-((cyclopropylmethyl)(2′-methoxy-[1,1′-biphenyl]-3-yl)amino)-5-methy-6-oxo-5,6-dihydro-1,5-naphthyridine-2-carbonitrile] |

Reference: patent US20260049076A1, “Tertiary Amine Substituted Bicyclic Compounds Useful as T Cell Activators” (BRISTOL-MYERS SQUIBB COMPANY, priority 2022, published 2026)
